From PubChem BioAssay (NCI)
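At the GI50, growth is halved. TGI denotes the concentration required for complete inhibition of growth.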

Legend:
Experiment in all cases: inhibition of tumour cell growth, NCI panel, 384-well format
[1] = test system: PC-3 prostate
[2] = test system: DU-145 prostate
[3] = test system: NCI-H226 lung
[4] = test system: CCRF-CEM leukemia
[5] = test system: SNB-75 CNS
[6] = test system: NCI-H460 NSCLC
[7] = test system: MDA-MB-231 breast
[8] = test system: IGROV1 ovarian
[9] = test system: SR leukemia
[10] = test system: MOLT-4 leukemia
[11] = test system: T-47D breast
[12] = test system: OVCAR-4 ovarian
[13] = test system: MALME-3M melanoma
[14] = test system: KM12 colon
[15] = test system: EKVX NSCLC
[16] = test system: HCT-15 colon
[17] = test system: HCC-2998 colon
[18] = test system: HT29 colon
[19] = test system: SF-295 CNS
[20] = test system: M14 melanoma
[21] = test system: SK-MEL-2 melanoma
[22] = test system: HOP-62 NSCLC
[23] = test system: SF-268 CNS
[24] = test system: HOP-92 NSCLC
[25] = test system: HS 578T breast
[26] = test system: SN12C renal
[27] = test system: OVCAR-3 ovarian
[28] = test system: ACHN renal
[29] = test system: SF-539 CNS
[30] = test system: OVCAR-5 ovarian
[31] = test system: TK-10 renal
[32] = test system: SK-MEL-5 melanoma
[33] = test system: UACC-62 melanoma
[34] = test system: RPMI-8226 leukemia
[35] = test system: HL-60(TB) leukemia
[36] = test system: UACC-257 melanoma
[37] = test system: MDA-MB-468 breast
[38] = test system: BT-549 breast
[39] = test system: CAKI-1 renal
[40] = test system: A549 NSCLC
[41] = test system: MDA-MB-435 melanoma
[42] = test system: MCF7 breast
[43] = test system: RXF 393 renal
[44] = test system: U251 glioblastoma
[45] = test system: 786-0 renal
[46] = test system: NCI-H23 lung
[47] = test system: SW-620 colon
[48] = test system: SK-OV-3 ovarian
[49] = test system: NCI-H522 lung
[50] = test system: NCI/ADR-RES ovarian
[51] = test system: SK-MEL-28 melanoma
[52] = test system: A498 renal
[53] = test system: NCI-H322M lung
[54] = test system: COLO 205 colon
[55] = test system: OVCAR-8 ovarian
[56] = test system: SNB-19 CNS

Which GI50 [1] does the source give for O=c1cc(N2CCOCC2)oc2c(-c3ccccc3)cccc12 here?
The GI50 was 3.18 µM.

What about the TGI [1] of the same compound?
The TGI was 18.3 µM.

And the GI50 [2]?
Its GI50 is 8.8 µM.

And the TGI [2]?
The TGI was 55.5 µM.

And the GI50 [3]?
Its GI50 is 3.45 µM.

And the TGI [3]?
Its TGI is 10.9 µM.

And the GI50 [4]?
Its GI50 is 4.08 µM.

What about the TGI [4] of the same compound?
The TGI was 16.1 µM.

And the GI50 [5]?
The GI50 was 1.27 µM.

And the TGI [5]?
Its TGI is 12.2 µM.

And the GI50 [6]?
The GI50 was 5.91 µM.

And the TGI [6]?
Its TGI is 66.3 µM.

What about the GI50 [7] of the same compound?
Its GI50 is 4.13 µM.

What about the TGI [7] of the same compound?
Its TGI is 45.8 µM.

And the GI50 [8]?
The GI50 was 2.54 µM.

What about the TGI [8] of the same compound?
The TGI was 7.63 µM.

And the GI50 [9]?
Its GI50 is 2.2 µM.

And the TGI [9]?
The TGI was 5.98 µM.

What about the GI50 [10] of the same compound?
Its GI50 is 3.86 µM.

What about the TGI [10] of the same compound?
The TGI was 15.2 µM.

What about the GI50 [11] of the same compound?
Its GI50 is 3.6 µM.

And the TGI [11]?
Its TGI is 23.4 µM.

And the GI50 [12]?
Its GI50 is 1.76 µM.

And the TGI [12]?
Its TGI is 9.3 µM.

And the GI50 [13]?
Its GI50 is 2.12 µM.

And the TGI [13]?
The TGI was 8.78 µM.

What about the GI50 [14] of the same compound?
Its GI50 is 14 µM.

What about the TGI [14] of the same compound?
The TGI was 81.7 µM.

What about the GI50 [15] of the same compound?
The GI50 was 4.43 µM.

And the TGI [15]?
The TGI was 26.7 µM.

And the GI50 [16]?
Its GI50 is 6.35 µM.

What about the TGI [16] of the same compound?
Its TGI is 90.2 µM.

And the GI50 [17]?
The GI50 was 12.3 µM.

What about the TGI [17] of the same compound?
Its TGI is 33 µM.

And the GI50 [18]?
The GI50 was 6.69 µM.

And the TGI [18]?
Its TGI is 28.7 µM.

What about the GI50 [19] of the same compound?
Its GI50 is 17.8 µM.

And the TGI [19]?
Its TGI is greater than 100 µM.

What about the GI50 [20] of the same compound?
Its GI50 is 4.81 µM.

What about the TGI [20] of the same compound?
The TGI was 29 µM.

And the GI50 [21]?
Its GI50 is 20.1 µM.

What about the TGI [21] of the same compound?
Its TGI is 38.9 µM.

What about the GI50 [22] of the same compound?
Its GI50 is 5.17 µM.

And the TGI [22]?
Its TGI is 32.8 µM.

What about the GI50 [23] of the same compound?
Its GI50 is 5.91 µM.

And the TGI [23]?
The TGI was 28.1 µM.

What about the GI50 [24] of the same compound?
Its GI50 is 4.79 µM.

What about the TGI [24] of the same compound?
The TGI was 43.2 µM.

And the GI50 [25]?
Its GI50 is 2.78 µM.

And the TGI [25]?
The TGI was 9.32 µM.

What about the GI50 [26] of the same compound?
The GI50 was 8.03 µM.

What about the TGI [26] of the same compound?
Its TGI is 97.5 µM.

And the GI50 [27]?
The GI50 was 6.36 µM.

What about the TGI [27] of the same compound?
The TGI was 27.9 µM.

And the GI50 [28]?
Its GI50 is 7.85 µM.

And the TGI [28]?
The TGI was 26.8 µM.

And the GI50 [29]?
Its GI50 is 10.1 µM.

What about the TGI [29] of the same compound?
The TGI was 37 µM.

What about the GI50 [30] of the same compound?
Its GI50 is 4.02 µM.

And the TGI [30]?
The TGI was 39.1 µM.

And the GI50 [31]?
Its GI50 is 2.79 µM.

And the TGI [31]?
Its TGI is 15.4 µM.

What about the GI50 [32] of the same compound?
The GI50 was 10.8 µM.

What about the TGI [32] of the same compound?
The TGI was 23.5 µM.

What about the GI50 [33] of the same compound?
The GI50 was 8.87 µM.

And the TGI [33]?
Its TGI is 23.3 µM.

And the GI50 [34]?
Its GI50 is 2.46 µM.

And the TGI [34]?
Its TGI is 8.77 µM.

And the GI50 [35]?
The GI50 was 2.6 µM.

What about the TGI [35] of the same compound?
Its TGI is 12.6 µM.

What about the GI50 [36] of the same compound?
Its GI50 is 16.9 µM.

And the TGI [36]?
The TGI was 51.3 µM.

What about the GI50 [37] of the same compound?
The GI50 was 2.24 µM.

And the TGI [37]?
Its TGI is 7.78 µM.

And the GI50 [38]?
The GI50 was 2.61 µM.

What about the TGI [38] of the same compound?
Its TGI is 14.4 µM.

And the GI50 [39]?
Its GI50 is 1.89 µM.

And the TGI [39]?
The TGI was 9.03 µM.

And the GI50 [40]?
The GI50 was 5.87 µM.

What about the TGI [40] of the same compound?
Its TGI is 27.9 µM.

And the GI50 [41]?
Its GI50 is 10.3 µM.

What about the TGI [41] of the same compound?
The TGI was 32.1 µM.

And the GI50 [42]?
The GI50 was 3 µM.

What about the TGI [42] of the same compound?
Its TGI is 25.6 µM.

What about the GI50 [43] of the same compound?
The GI50 was 2.94 µM.

What about the TGI [43] of the same compound?
The TGI was 16.6 µM.

What about the GI50 [44] of the same compound?
Its GI50 is 16.4 µM.

What about the TGI [44] of the same compound?
Its TGI is 58.7 µM.

What about the GI50 [45] of the same compound?
The GI50 was 7.17 µM.

And the TGI [45]?
Its TGI is 93.5 µM.

And the GI50 [46]?
The GI50 was 8.85 µM.

What about the TGI [46] of the same compound?
The TGI was 32.4 µM.

And the GI50 [47]?
Its GI50 is 18.9 µM.

What about the TGI [47] of the same compound?
Its TGI is greater than 100 µM.

And the GI50 [48]?
The GI50 was 3.64 µM.

And the TGI [48]?
Its TGI is 19.7 µM.

What about the GI50 [49] of the same compound?
The GI50 was 2.44 µM.

What about the TGI [49] of the same compound?
The TGI was 10.9 µM.

And the GI50 [50]?
The GI50 was 5.08 µM.

What about the TGI [50] of the same compound?
Its TGI is 21.8 µM.

What about the GI50 [51] of the same compound?
Its GI50 is 5.44 µM.

What about the TGI [51] of the same compound?
The TGI was 30.7 µM.

And the GI50 [52]?
Its GI50 is 1.86 µM.

What about the TGI [52] of the same compound?
The TGI was 8.98 µM.

What about the GI50 [53] of the same compound?
Its GI50 is 12.7 µM.

And the TGI [53]?
Its TGI is 73.2 µM.

And the GI50 [54]?
Its GI50 is 10.1 µM.

What about the TGI [54] of the same compound?
The TGI was 22.6 µM.

What about the GI50 [55] of the same compound?
The GI50 was 4.9 µM.

What about the TGI [55] of the same compound?
Its TGI is 32.1 µM.

And the GI50 [56]?
Its GI50 is 23.7 µM.

And the TGI [56]?
Its TGI is greater than 100 µM.
